Earlier results in PubChem BioAssay AID1259409 (Chemical Carcinogenesis Research Information System (CCRIS), 2018).

Tested on: rodent chemically induced tumor inhibition, incidence and multiplicity
Assay: CCRIS tumor inhibitor studies
Conditions: Dose [Inhibitor]: 0

C[C@]12CC[C@@H]3c4ccc(O)cc4CC[C@H]3[C@@H]1CC[C@@H]2O
tumour outcome (control, treated, inhibition, significance) (Carcinogen: DIETHYLNITROSAMINE, 55-18-5, 0.5-1 MG IN PELLET IMPLANTED 1/MONTH FOR 26 WK BEGINNING 30 D POST CARCINOGEN TREATMENT. DOSING BEGAN SAME DAY OF ORC, Route [Inhibitor]: SUBCUTANEOUS, Species: MOUSE, Strain/Sex: B6C3F1/MALE, Target Tissue: Type of Lesion: LIVER: TUMOR, Dose [Carcinogen]: 2.5 UG/G BW IN SALINE ONCE, Promoter: NONE): 19/30 (63%), 6/23 (26%), 59%, not significant | tumour outcome (control, treated, inhibition, significance) (Carcinogen: N-ETHYL-N-NITROSOUREA, 759-73-9, 0.1 MG PELLET IMPLANTED WITHIN 24 HR OF BIRTH AND REPLACED EVERY 2 MO (STUDY DURATION: 8 MO), Route [Inhibitor]: SUBCUTANEOUS IMPLANT, Species: RAT, Strain/Sex: WF X LE F1/FEMALE, Target Tissue: Type of Lesion: TRIGEMINAL NERVE: SCHWANNOMA, Dose [Carcinogen]: 40 MG/KG ONCE WITHIN 24 HR OF BIRTH, Promoter: NONE USED): 14/19 (74%), 12/20 (60%), 19%, not calculated | outcome (Carcinogen: N-ETHYL-N-NITROSOUREA, 759-73-9, 0.1 MG PELLET IMPLANTED WITHIN 24 HR OF BIRTH AND REPLACED EVERY 2 MO (STUDY DURATION: 8 MO), Route [Inhibitor]: SUBCUTANEOUS IMPLANT, Species: RAT, Strain/Sex: WF X LE F1/MALE, Target Tissue: Type of Lesion: KIDNEY: TUMOR, Dose [Carcinogen]: 40 MG/KG ONCE WITHIN 24 HR OF BIRTH, Promoter: NONE USED): 0/21 (0%), 7/22 (32%), -100%, not calculated | tumour outcome (control, treated, inhibition, significance) (Carcinogen: N-ETHYL-N-NITROSOUREA, 759-73-9, 0.1 MG PELLET IMPLANTED WITHIN 24 HR OF BIRTH AND REPLACED EVERY 2 MO (STUDY DURATION: 8 MO), Route [Inhibitor]: SUBCUTANEOUS IMPLANT, Species: RAT, Strain/Sex: WF X LE F1/MALE, Target Tissue: Type of Lesion: TRIGEMINAL NERVE: SCHWANNOMA, Dose [Carcinogen]: 40 MG/KG ONCE WITHIN 24 HR OF BIRTH, Promoter: NONE USED): 19/21 (91%), 13/22 (59%), 35%, p<0.05 | tumour outcome (control, treated, inhibition, significance) (Carcinogen: N-METHYL-N-NITROSOUREA, 684-93-5, 2.5 MG IN CHOLESTEROL PELLET IMPLANTED 2 WK PRIOR TO CARCINOGEN DOSE AND REPLACED EVERY 4 WK (STUDY DURATION: 36 WK), Route [Inhibitor]: SUBCUTANEOUS IMPLANT, Species: RAT, Strain/Sex: F344/FEMALE, Target Tissue: Type of Lesion: MAMMARY GLAND: CARCINOMA, Dose [Carcinogen]: 50 MG/KG BW ONCE, Promoter: NONE USED): 10/20 (50%), 1/28 (4%), 92%, p<0.01 | tumour outcome (control, treated, inhibition, significance) (Carcinogen: N-METHYL-N-NITROSOUREA, 684-93-5, 2.5 MG IN CHOLESTEROL PELLET IMPLANTED AT TIME OF CARCINOGEN DOSE AND REPLACED EVERY 4 WK (STUDY DURATION: 35 WK), Route [Inhibitor]: SUBCUTANEOUS IMPLANT, Species: RAT, Strain/Sex: F344/MALE, Target Tissue: Type of Lesion: MAMMARY GLAND: CARCINOMA, Dose [Carcinogen]: 50 MG/KG BW ONCE, Promoter: NONE USED): 10?20 (50%), 7/16 (44%), 12%, not significant | tumour outcome (control, treated, inhibition, significance) (Carcinogen: N-METHYL-N-NITROSOUREA, 684-93-5, 20 UG IN SILASTIC CAPSULES FOR 3 WK IMPLANTED 2 WK POST CARCINOGEN TREATMENT (STUDY DURATION: 10 MO), Route [Inhibitor]: SUBCUTANEOUS, Species: RAT, Strain/Sex: LEWIS/FEMALE, Target Tissue: Type of Lesion: MAMMARY GLAND: TUMOR, Dose [Carcinogen]: 50 MG/KG BW ONCE AT 7 WK OF AGE): 11/11 (100%), 8/11 (73%), 27%, not significant | tumour outcome (control, treated, inhibition, significance) (Carcinogen: N-METHYL-N-NITROSOUREA, 684-93-5, 30 MG IN SILASTIC CAPSULES FOR 3 WK IMPLANTED 2 WK POST CARCINOGEN TREATMENT (STUDY DURATION: 10 MO), Route [Inhibitor]: SUBCUTANEOUS, Species: RAT, Strain/Sex: LEWIS/FEMALE, Target Tissue: Type of Lesion: MAMMARY GLAND: TUMOR, Dose [Carcinogen]: 50 MG/KG BW ONCE AT 7 WK OF AGE): 11/11 (100%), 2/12 (17%), 83%, p<0.001 | tumour outcome (control, treated, inhibition, significance) (Carcinogen: N-METHYL-N-NITROSOUREA, 684-93-5, 100 UG IN SILASTIC CAPSULES FOR 2 WK IMPLANTED 2 WK POST CARCINOGEN TREATMENT (STUDY DURATION: 10 MO), Route [Inhibitor]: SUBCUTANEOUS, Species: RAT, Strain/Sex: LEWIS/FEMALE, Target Tissue: Type of Lesion: MAMMARY GLAND: TUMOR, Dose [Carcinogen]: 50 MG/KG BW ONCE AT 7 WK OF AGE): 13/15 (87%), 7/16 (44%), 49%, p<0.05 | tumour outcome (control, treated, inhibition, significance) (Carcinogen: N-METHYL-N-NITROSOUREA, 684-93-5, 100 UG IN SILASTIC CAPSULES FOR 3 WK IMPLANTED 2 WK POST CARCINOGEN TREATMENT (STUDY DURATION: 10 MO), Route [Inhibitor]: SUBCUTANEOUS, Species: RAT, Strain/Sex: LEWIS/FEMALE, Target Tissue: Type of Lesion: MAMMARY GLAND: TUMOR, Dose [Carcinogen]: 50 MG/KG BW ONCE AT 7 WK OF AGE): 11/11 (100%), 2/12 (17%), 83%, p<0.001 | tumour outcome (control, treated, inhibition, significance) (Carcinogen: N-METHYL-N-NITROSOUREA, 684-93-5, 200 UG IN SILASTIC CAPSULES FOR 1 WK IMPLANTED 2 WK POST CARCINOGEN TREATMENT (STUDY DURATION: 10 MO), Route [Inhibitor]: SUBCUTANEOUS, Species: RAT, Strain/Sex: LEWIS/FEMALE, Target Tissue: Type of Lesion: MAMMARY GLAND: TUMOR, Dose [Carcinogen]: 50 MG/KG BW ONCE AT 7 WK OF AGE): 13/15 (87%), 3/15 (20%), 77%, p<0.01 | tumour outcome (control, treated, inhibition, significance) (Carcinogen: N-METHYL-N-NITROSOUREA, 684-93-5, 200 UG IN SILASTIC CAPSULES FOR 3 WK IMPLANTED 2 WK POST CARCINOGEN TREATMENT (STUDY DURATION: 10 MO), Route [Inhibitor]: SUBCUTANEOUS, Species: RAT, Strain/Sex: LEWIS/FEMALE, Target Tissue: Type of Lesion: MAMMARY GLAND: TUMOR, Dose [Carcinogen]: 50 MG/KG BW ONCE AT 7 WK OF AGE): 11/11 (100%), 2/12 (17%), 83%, p<0.001
